Active and inactive are the calls of the source.
Assays:
cells [1] = assay type: functional, cell-based
cells [2] = assay type: functional, cell-based; remark: listed apart in the source
[3] = molecular target: T1, Calpain-2 catalytic subunit (Sus scrofa, UniProt P43367); experiment: m-calpain protease blockers, concentration series – biochemical, fluorogenic peptide substrate, dose response (AID 1420); assay type: functional
T1 sequence (P43367 whole entry): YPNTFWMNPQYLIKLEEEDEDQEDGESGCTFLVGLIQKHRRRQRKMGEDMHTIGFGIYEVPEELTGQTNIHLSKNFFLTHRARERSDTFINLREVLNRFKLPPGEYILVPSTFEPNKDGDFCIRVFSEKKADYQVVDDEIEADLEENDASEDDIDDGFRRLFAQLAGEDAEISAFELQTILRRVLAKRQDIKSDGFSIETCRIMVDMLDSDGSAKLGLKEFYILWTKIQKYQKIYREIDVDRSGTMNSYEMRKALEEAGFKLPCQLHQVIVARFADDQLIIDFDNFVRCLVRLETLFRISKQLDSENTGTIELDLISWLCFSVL

[4] = OVCAR-3 cell viability loss – plate reader, dry powder samples, PAX8 inhibitor project, dose response (AID 743044); assay type: functional, cell-based
Paired box protein Pax-8 = Paired box protein Pax-8 (Homo sapiens, UniProt Q06710); experiment: PAX8 transcriptional activity inhibition in RMG-I – RMG-I cells, luciferase, cherry-pick, dose response (AID 687027); assay type: functional, cell-based;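 further: luciferase reporter driven by Pax8 target thyroperoxidase promoter measured by SteadyGlo luminescence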
Chain of Paired box protein Pax-8 (Q06710 whole entry): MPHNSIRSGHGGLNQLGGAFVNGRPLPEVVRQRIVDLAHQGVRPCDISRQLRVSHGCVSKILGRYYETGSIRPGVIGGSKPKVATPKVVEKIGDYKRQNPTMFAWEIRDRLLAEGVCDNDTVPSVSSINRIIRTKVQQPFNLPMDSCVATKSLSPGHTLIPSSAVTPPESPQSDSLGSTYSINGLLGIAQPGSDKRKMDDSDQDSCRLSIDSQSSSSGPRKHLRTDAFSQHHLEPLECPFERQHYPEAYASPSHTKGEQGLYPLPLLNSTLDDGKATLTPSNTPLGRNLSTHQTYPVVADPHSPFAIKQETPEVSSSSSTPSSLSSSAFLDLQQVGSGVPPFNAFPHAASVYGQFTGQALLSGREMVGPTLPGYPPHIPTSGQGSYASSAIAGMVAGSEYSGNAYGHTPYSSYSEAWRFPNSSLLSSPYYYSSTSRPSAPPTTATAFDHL

Large T antigen = Large T antigen (Simian virus 40, UniProt P03070); assay type: functional, Betapolyomavirus macacae;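 further: Confirmatory-stage PubChem screen for compounds that inhibit SV40 T antigen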
Chain of Large T antigen (P03070 whole entry): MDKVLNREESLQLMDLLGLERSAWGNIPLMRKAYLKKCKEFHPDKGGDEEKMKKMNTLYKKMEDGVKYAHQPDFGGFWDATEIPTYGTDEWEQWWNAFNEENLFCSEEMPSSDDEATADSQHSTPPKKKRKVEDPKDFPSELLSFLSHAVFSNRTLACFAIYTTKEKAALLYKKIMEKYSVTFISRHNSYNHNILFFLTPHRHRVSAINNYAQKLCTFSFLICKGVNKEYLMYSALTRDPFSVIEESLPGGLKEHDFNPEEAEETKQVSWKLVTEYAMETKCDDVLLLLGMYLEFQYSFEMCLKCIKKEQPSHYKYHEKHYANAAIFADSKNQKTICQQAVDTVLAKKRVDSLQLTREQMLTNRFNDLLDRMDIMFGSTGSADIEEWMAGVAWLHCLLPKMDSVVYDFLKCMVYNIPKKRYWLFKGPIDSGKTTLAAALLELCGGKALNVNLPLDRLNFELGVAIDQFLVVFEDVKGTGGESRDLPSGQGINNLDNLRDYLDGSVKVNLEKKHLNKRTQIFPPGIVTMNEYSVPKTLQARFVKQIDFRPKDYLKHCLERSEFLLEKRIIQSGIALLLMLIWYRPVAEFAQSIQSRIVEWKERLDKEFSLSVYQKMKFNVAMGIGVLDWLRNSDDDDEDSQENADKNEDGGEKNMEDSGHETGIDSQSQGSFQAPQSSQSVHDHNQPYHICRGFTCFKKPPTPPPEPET

[5] = molecular target: T2, Corticotropin-releasing factor receptor 2/Corticotropin-releasing factor-binding protein (Homo sapiens, UniProt P24387+Q13324); experiment: activators of CRF receptor 2 with binding protein – uHTS hits, confirmation (AID 602473); assay type: functional; conditions: read-out: EC50_Mean
T2 sequence (Q13324 whole entry): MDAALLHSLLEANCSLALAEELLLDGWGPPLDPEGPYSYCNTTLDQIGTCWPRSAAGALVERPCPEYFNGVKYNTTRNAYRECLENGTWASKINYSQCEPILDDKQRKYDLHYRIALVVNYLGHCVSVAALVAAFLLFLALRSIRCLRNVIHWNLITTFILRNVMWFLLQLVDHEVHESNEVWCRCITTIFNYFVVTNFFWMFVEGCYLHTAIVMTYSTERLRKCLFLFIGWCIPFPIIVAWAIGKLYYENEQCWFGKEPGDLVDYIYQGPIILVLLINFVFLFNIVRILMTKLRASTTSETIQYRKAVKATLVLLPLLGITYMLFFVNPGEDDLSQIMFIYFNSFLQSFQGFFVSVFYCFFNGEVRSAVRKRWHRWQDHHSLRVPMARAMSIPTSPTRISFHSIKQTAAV
T2 sequence (P24387 whole entry): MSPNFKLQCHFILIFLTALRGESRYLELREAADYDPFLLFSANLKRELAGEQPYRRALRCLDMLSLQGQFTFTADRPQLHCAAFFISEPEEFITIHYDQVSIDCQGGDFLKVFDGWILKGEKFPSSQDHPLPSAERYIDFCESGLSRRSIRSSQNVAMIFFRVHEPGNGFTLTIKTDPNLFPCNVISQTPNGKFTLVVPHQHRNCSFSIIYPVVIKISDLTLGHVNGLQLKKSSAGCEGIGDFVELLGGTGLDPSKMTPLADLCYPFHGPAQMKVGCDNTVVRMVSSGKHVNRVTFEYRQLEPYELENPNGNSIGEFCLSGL

[6] = molecular target: T2, Corticotropin-releasing factor receptor 2/Corticotropin-releasing factor-binding protein; experiment: Dose Response confirmation of uHTS hits for small molecule antagonists of the CRF-binding protein and CRF-R2 receptor complex.; assay type: functional; conditions: read-out: IC50_Mean
Leucine aminopeptidase = molecular target: T3, Leucine aminopeptidase (Plasmodium falciparum 3D7, UniProt Q8IL11); experiment: P. falciparum M17LAP inhibitors, primary screen, biochemical, fluorogenic H-Leu-NHMec substrate, 1536-well (AID 1619); assay type: functional
T3 sequence (Q8IL11 whole entry): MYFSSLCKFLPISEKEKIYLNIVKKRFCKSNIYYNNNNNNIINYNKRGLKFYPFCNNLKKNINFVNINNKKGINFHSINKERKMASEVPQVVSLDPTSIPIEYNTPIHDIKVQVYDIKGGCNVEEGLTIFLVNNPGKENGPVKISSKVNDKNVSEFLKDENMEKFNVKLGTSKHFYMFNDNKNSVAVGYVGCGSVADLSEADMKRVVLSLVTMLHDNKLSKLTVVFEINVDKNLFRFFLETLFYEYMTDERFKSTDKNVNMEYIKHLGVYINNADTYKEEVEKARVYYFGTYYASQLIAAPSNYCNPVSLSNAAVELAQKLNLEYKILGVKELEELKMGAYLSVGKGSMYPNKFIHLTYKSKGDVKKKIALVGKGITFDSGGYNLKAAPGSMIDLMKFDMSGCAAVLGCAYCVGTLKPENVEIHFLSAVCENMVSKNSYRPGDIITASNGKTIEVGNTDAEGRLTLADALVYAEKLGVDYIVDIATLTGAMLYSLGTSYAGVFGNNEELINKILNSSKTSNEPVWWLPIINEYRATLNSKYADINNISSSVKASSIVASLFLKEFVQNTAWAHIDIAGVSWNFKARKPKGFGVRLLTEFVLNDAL

[7] = viability of uninfected HEp-2 cells – cell-based, HTS, cytotoxicity control for RSV inhibitor project, dose response (AID 2410); assay type: functional; conditions: human respiratory syncytial virus
[8] = IGROV1 cell killing – plate reader, dry powder samples, PAX8 inhibitor project, dose response (AID 743043); assay type: functional, cell-based; conditions: IGROV-1
[9] = molecular target: T4, Ubiquitin-conjugating enzyme E2 N (Homo sapiens, UniProt P61088); assay type: functional;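 further: Dose-response confirmation in a TR-FRET assay detecting UBC13-driven polyubiquitin chain formation, inhibition measured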
T4 sequence (P61088 whole entry): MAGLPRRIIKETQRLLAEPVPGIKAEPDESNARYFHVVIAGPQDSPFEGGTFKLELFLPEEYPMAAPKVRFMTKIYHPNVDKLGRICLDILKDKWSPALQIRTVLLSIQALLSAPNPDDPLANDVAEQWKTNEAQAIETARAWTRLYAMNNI

Cytochrome P450 2D6 = Cytochrome P450 2D6 (Homo sapiens, UniProt P10635);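 further: CYP2D6 member of a cytochrome P450 panel assay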
Chain of Cytochrome P450 2D6 (P10635 whole entry): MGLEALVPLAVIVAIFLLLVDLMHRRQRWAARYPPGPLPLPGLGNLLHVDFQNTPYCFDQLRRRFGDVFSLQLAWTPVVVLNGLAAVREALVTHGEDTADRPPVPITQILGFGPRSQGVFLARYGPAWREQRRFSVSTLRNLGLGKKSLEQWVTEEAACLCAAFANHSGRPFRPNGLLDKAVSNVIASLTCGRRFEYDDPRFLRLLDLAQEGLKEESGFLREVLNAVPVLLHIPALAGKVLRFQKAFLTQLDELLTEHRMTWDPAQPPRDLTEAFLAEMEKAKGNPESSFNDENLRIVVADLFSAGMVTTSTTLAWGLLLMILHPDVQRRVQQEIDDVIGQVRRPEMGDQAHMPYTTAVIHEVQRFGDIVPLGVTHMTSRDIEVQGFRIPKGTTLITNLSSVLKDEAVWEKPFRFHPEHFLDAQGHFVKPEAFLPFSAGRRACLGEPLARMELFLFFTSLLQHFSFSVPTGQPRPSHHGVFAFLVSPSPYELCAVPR

Cytochrome P450 2C9 = Cytochrome P450 2C9 (Homo sapiens, UniProt P11712)
Chain of Cytochrome P450 2C9 (P11712 whole entry): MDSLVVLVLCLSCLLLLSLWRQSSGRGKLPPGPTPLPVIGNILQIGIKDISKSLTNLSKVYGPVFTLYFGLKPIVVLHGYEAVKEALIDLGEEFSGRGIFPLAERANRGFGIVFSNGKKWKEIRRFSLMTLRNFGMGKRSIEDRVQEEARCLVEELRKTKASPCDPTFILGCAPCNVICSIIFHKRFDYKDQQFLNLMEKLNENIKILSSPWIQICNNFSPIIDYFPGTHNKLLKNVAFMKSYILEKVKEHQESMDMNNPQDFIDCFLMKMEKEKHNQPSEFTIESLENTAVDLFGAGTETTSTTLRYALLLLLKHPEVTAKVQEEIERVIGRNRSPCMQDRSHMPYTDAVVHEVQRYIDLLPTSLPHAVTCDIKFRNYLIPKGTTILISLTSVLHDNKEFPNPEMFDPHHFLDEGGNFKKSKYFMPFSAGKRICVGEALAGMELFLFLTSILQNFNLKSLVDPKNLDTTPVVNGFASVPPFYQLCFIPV

BJ [10] = experiment: cells; assay type: functional, cell-based; conditions: Homo sapiens
BJ [11] = experiment: BJ-TERT-LT-ST fibroblast viability loss – cell-based, RAS-independent, luminescence, dose response (AID 1935); assay type: functional; conditions: Homo sapiens;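 further: BJ fibroblasts immortalized with TERT plus LT and ST oncogenes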
[12] = DRD fibroblast viability loss – cell-based, non-viral oncogenic, luminescence, dose response (AID 1934); assay type: functional; conditions: Homo sapiens
BJ [13] = experiment: BJ-TERT fibroblast viability loss – cell-based, RAS-independent, luminescence, dose response (AID 1933); assay type: functional; conditions: Homo sapiens
[14] = microbe, parasite or virus in culture; assay type: functional; conditions: Mycobacterium tuberculosis

Cc1ccc(C(=O)CSc2ccc(-c3ccncc3)nn2)cc1
EC50 (cells [1]): > 350 µM (not active)
EC50 (cells [2]): > 350 µM (not active)

CCN(CC)S(=O)(=O)c1cc(NS(=O)(=O)c2ccccc2)ccc1C
IC50 [3]: > 50 µM (not active)

Cc1ccnc(NS(=O)(=O)c2cc([N+](=O)[O-])ccc2C)c1
EC50 (cells [1]): > 350 µM (not active)
EC50 (cells [2]): > 350 µM (not active)

CCOC(=O)C1CCCN(c2c(NCCCN(C)c3ccccc3)c(=O)c2=O)C1 (configuration not stated)
IC50 [3]: > 50 µM (not active)

Cc1ccc(C2CC(c3cccs3)=NN2C(=O)c2ccco2)o1 (configuration not stated)
IC50 [3]: > 50 µM (not active)

C[C@H](CO)N1C[C@H](C)[C@H](CN(C)Cc2ccc(Cl)c(Cl)c2)OCCCC[C@H](C)Oc2ccc(NS(=O)(=O)c3ccc(F)cc3)cc2C1=O
AC50 [4]: 48.3 µM (active)
AC50 (Paired box protein Pax-8): 4.85 µM (active)

CC1=NC(=S)NC(c2cccs2)/C1=C(\O)OCC(C)C (configuration not stated)
IC50 (Large T antigen): 51.4 µM (active)

O=C(OCC(=O)N1CCN(c2ccccc2)CC1)c1ccccn1
EC50 [5]: > 53 µM (inactive)
IC50 [6]: > 47.1 µM (inactive)

Nc1n[nH]c(N)c1N=Nc1cccc(F)c1
IC50 (Leucine aminopeptidase): 5.51 µM (active)

CCn1cc(C(=O)NCC(OC)OC)c(=O)c2cc(S(=O)(=O)N3CCC(C)CC3)ccc21
EC50 (cells [1]): > 350 µM (not active)
EC50 (cells [2]): > 350 µM (not active)
CC50 [7]: 11.1 µM (active)

CC(C)=CCSc1nnc([C@@H](N)Cc2c[nH]c3ccccc23)o1
EC50 (cells [1]): > 350 µM (not active)
EC50 (cells [2]): > 350 µM (not active)

COc1ccc(NC(=O)CSc2[nH]c(=O)cc(C)c2C#N)cc1OC
IC50 (Leucine aminopeptidase): 16.2 µM (active)

O=C(CCCN1C(=O)c2ccccc2C1=O)N1CCC(c2ccccc2)C1 (configuration not stated)
IC50 [3]: 25.1 µM (not active)

Cc1ccc(C)c(OCC(=O)O/N=C(\N)c2cccc([N+](=O)[O-])c2)c1
EC50 (cells [1]): > 350 µM (not active)
EC50 (cells [2]): > 350 µM (not active)

CSc1ncccc1C(=O)N(C)CC(=O)Nc1cccc(F)c1
EC50 [5]: > 53 µM (inactive)
IC50 [6]: > 47.1 µM (inactive)

NC(=O)COc1ncn(-c2ccccc2)n1
EC50 [5]: > 53 µM (inactive)
IC50 [6]: > 47.1 µM (inactive)

CC1CN(C(c2ccco2)c2sc3ncnn3c2O)CC(C)O1 (configuration not stated)
EC50 [5]: > 53 µM (inactive)
IC50 [6]: > 47.1 µM (inactive)

CC(=O)Nc1ccc(OC(=O)C(CCS(C)(=O)=O)N2C(=O)c3ccccc3C2=O)cc1 (configuration not stated)
IC50 (Large T antigen): 8.46 µM (active)

O=C(O)c1cccc2c1C(=O)N(Cc1ccccc1)C2
EC50 [5]: > 53 µM (inactive)
IC50 [6]: > 47.1 µM (inactive)

C[C@H](CO)N1C[C@H](C)[C@H](CN(C)CC2CCCCC2)OCCCC[C@H](C)Oc2ccc(NC(=O)Nc3ccccc3)cc2C1=O
AC50 [4]: 25 µM (active)
AC50 (Paired box protein Pax-8): 14.2 µM (active)
AC50 [8]: 38.2 µM (active)

CCCC[C@@H](CNC)NC[C@H](NCCCCC1CCCCC1)C(C)C
IC50 [9]: > 20 µM (inactive)

O=C(CN1C(=O)c2ccccc2S1(=O)=O)Nc1ccccc1
AC50 (Cytochrome P450 2D6): 17.8 µM (inconclusive)
AC50 (Cytochrome P450 2C9): 12.6 µM (inconclusive)
IC50 (Leucine aminopeptidase): 24.6 µM (active)

O=C(CCN1C(=O)/C(=C/c2cccc(Br)c2)SC1=S)Nc1cccnc1
EC50 (BJ [10]): > 150 µM (not active)
EC50 (BJ [11]): > 150 µM (not active)
EC50 [12]: 18.7 µM (active)
EC50 (BJ [13]): 7.86 µM (inconclusive)

CC(C)Cn1cc(C(=O)NC2CCN(Cc3ccccc3)CC2)c2c3ccccc3n(C)c2c1=O
IC50 [9]: > 20 µM (inactive)

CCn1c(O)c(N=NC(S)=NCC2CCCO2)c2ccccc21 (configuration not stated)
IC50 [9]: > 20 µM (inactive)

CCCOc1ccc(OCCN2CCCC(C)C2)cc1 (configuration not stated)
IC50 [3]: < 0.4 µM (not active)

O=C(O)C1CCCCC1C(=O)Nc1ccc(Cl)cc1Cl (configuration not stated)
IC50 (Leucine aminopeptidase): 14.3 µM (active)

Cc1cc(NC(=O)CCl)no1
CC50 [14]: 19.6 µM (active)
EC50 (BJ [10]): > 150 µM (not active)
EC50 (BJ [11]): > 75 µM (not active)
EC50 [12]: 21.1 µM (active)
EC50 (BJ [13]): 18 µM (active)

CCc1ccc(N(C(=O)c2snc(C(N)=O)c2N)C(C(=O)NC2CCCC2)c2ccco2)cc1 (configuration not stated)
IC50 [9]: > 20 µM (inactive)

COc1ccc(CN2CCS(=O)(=O)CC2)cc1OC
EC50 [5]: > 53 µM (inactive)
IC50 [6]: > 47.1 µM (inactive)

Cc1ccc(S(=O)(=O)N2CC(C)N(C(=O)N3CCOCC3)C2C)cc1 (configuration not stated)
EC50 (cells [1]): > 350 µM (not active)
EC50 (cells [2]): > 350 µM (not active)

O=C(CCCN1C(=O)/C(=C/c2cccc(Br)c2)SC1=S)Nc1cccnc1
AC50 (Paired box protein Pax-8): 8.92 µM (active)
EC50 (BJ [10]): 25.3 µM (active)
EC50 (BJ [11]): 17.2 µM (active)
EC50 [12]: 9.68 µM (active)
EC50 (BJ [13]): 3.12 µM (active)

Cc1cccc(NC(=O)CN2NS(=O)(=O)c3ccccc3C2=O)c1
IC50 (Leucine aminopeptidase): 7.74 µM (active)

Cc1ccc(-c2noc(CSc3nnc(Cc4ccccc4)n3-c3cccc(C)c3)n2)cc1
IC50 [3]: 5.35 µM (not active)

O=C(COC(=O)C1CCN(S(=O)(=O)c2ccccc2)CC1)NC(=O)c1ccc(OC(F)F)cc1
EC50 [5]: > 53 µM (inactive)
IC50 [6]: > 47.1 µM (inactive)

Cc1ccc2nc(Cl)c(/C=N/Nc3ccc(C(=O)O)cc3)cc2c1
IC50 [3]: 4.02 µM (not active)

Cc1ccc(NC(=O)CN2C(=O)N/C(=C/c3ccco3)C2=O)cc1
IC50 (Leucine aminopeptidase): 37.8 µM (active)

From ChEMBL document CHEMBL1201862, “PubChem BioAssay data set” (2004)
